The record followed here is patent US20050095278A1, “Use of nitroglycerin to relieve nocturnal muscle cramps” (priority 2003, published 2005).

The structures appear in SMILES notation.

The assay concerns patients with nocturnal leg muscle cramps. Description: Topically applied nitroglycerin (transdermal patch) in ten patients with nocturnal leg muscle cramps. The class given is in vivo, human. From the text:
The following Examples show the successful use of topically applied nitroglycerin in treating ten patients with nocturnal leg muscle cramps.

Take `O=[N+]([O-])OCC(CO[N+](=O)[O-])O[N+](=O)[O-]` [nitroglycerin]: the “relief in the frequency and severity of nocturnal muscle cramping (summary of the ten patients)” value (small amounts of nitroglycerin, even once daily) is reported as “moderate to significant relief”. Besides, for the setting “topically applied by a transdermal patch to the lower extremity”, the “relieving pain and cramping associated with nocturnal muscle cramps (observation)” value was “effective in relieving pain and cramping”. The “relief of pain and cramping associated with muscle cramps (early studies)” value (transdermal delivery at a rate of about 0.1 mg/hr) is “sufficient for relief of pain and cramping”.
